For this series, the target named is ATP-dependent translocase ABCB1 (Homo sapiens, UniProt P08183). The series is described as follows: TP_TRANSPORTER: transepithelial transport in Caco 2 cell. It counts as functional, cell-based.
Sequence of ATP-dependent translocase ABCB1 (P08183 whole entry): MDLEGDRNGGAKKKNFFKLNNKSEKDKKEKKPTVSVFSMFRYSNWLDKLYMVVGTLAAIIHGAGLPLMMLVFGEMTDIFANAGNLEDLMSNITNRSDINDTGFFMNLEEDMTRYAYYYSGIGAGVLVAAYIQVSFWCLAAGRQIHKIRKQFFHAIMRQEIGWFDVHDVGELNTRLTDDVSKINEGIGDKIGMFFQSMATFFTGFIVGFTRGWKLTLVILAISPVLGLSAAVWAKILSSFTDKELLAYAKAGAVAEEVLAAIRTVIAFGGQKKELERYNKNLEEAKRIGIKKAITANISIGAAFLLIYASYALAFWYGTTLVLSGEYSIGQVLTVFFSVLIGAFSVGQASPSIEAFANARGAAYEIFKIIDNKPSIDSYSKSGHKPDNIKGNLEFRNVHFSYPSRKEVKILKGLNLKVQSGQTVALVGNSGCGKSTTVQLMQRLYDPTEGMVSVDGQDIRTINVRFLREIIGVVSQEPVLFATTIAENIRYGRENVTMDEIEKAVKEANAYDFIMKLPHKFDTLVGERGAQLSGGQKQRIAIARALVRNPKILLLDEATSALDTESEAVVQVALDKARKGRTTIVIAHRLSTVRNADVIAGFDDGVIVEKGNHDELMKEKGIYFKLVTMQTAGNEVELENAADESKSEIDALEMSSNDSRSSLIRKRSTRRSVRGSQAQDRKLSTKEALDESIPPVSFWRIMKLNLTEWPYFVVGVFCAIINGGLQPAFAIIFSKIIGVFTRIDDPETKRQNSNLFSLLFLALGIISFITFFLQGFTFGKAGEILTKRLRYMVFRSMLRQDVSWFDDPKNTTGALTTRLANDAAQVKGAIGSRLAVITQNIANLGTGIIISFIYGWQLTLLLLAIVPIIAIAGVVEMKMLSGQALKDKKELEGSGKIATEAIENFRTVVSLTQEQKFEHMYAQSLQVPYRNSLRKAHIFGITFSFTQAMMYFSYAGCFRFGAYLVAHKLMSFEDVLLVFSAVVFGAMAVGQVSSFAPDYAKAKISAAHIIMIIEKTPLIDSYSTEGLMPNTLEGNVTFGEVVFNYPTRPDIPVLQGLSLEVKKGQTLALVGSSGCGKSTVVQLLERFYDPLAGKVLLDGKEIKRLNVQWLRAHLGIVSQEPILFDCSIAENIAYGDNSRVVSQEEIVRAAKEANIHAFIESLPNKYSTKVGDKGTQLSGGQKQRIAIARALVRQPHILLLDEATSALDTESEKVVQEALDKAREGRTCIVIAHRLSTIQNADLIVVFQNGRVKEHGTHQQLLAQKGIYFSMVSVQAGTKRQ

Regarding `CO[C@H]1/C=C/O[C@@]2(C)Oc3c(C)c(O)c4c(O)c(c(/C=N/N5CCN(C)CC5)c(O)c4c3C2=O)NC(=O)/C(C)=C\C=C\[C@H](C)[C@H](O)[C@@H](C)[C@@H](O)[C@@H](C)[C@H](OC(C)=O)[C@@H]1C` [RIFAMPIN], the Activity result is “substrate [+]”.

On to `C=CCNc1nc(NCC=C)nc(N2CCC(NCC(c3ccc(F)cc3)c3ccc(F)cc3)CC2)n1`, for which the Activity result is “substrate [+]”.

Regarding `C=CC[C@@H]1/C=C(\C)C[C@H](C)C[C@H](OC)[C@H]2O[C@@](O)(C(=O)C(=O)N3CCCC[C@H]3C(=O)O[C@H](/C(C)=C/[C@@H]3CC[C@@H](O)[C@H](OC)C3)[C@H](C)[C@@H](O)CC1=O)[C@H](C)C[C@@H]2OC` [TACROLIMUS ANHYDROUS], the Activity entry was “substrate [+]”.

With `CC(=O)O[C@H]1C(=O)[C@@]2(C)[C@H]([C@H](OC(=O)c3ccccc3)[C@]3(O)C[C@H](OC(=O)[C@H](O)[C@@H](NC(=O)c4ccccc4)c4ccccc4)C(C)=C1C3(C)C)[C@]1(OC(C)=O)CO[C@@H]1C[C@@H]2O` [PACLITAXEL], the Activity entry is “substrate [+]”.

`C[C@H]1O[C@@H](O[C@H]2[C@@H](O)C[C@H](O[C@H]3[C@@H](O)C[C@H](O[C@H]4CC[C@@]5(C)[C@H](CC[C@@H]6[C@@H]5C[C@@H](O)[C@]5(C)[C@@H](C7=CC(=O)OC7)CC[C@]65O)C4)O[C@@H]3C)O[C@@H]2C)C[C@H](O)[C@@H]1O` [DIGOXIN]: the Activity entry is “substrate [+]”.

Take `CC(C)(C)NC(=O)[C@@H]1C[C@@H]2CCCC[C@@H]2CN1C[C@@H](O)[C@H](Cc1ccccc1)NC(=O)[C@H](CC(N)=O)NC(=O)c1ccc2ccccc2n1` [SAQUINAVIR]: the Activity entry is “substrate [+]”.

As for `NS(=O)(=O)N1CCN(C2CN(CC[C@]3(c4ccc(Cl)c(Cl)c4)CCC(=O)N(CC4CC4)C3)C2)CC1`, the Activity entry was “substrate [+]”.

As for `CC[C@@]1(O)C(=O)OCc2c1cc1n(c2=O)Cc2cc3c(CN(C)C)c(O)ccc3nc2-1` [TOPOTECAN], the Activity result is “substrate [+]”.

Source of the values: ChEMBL document CHEMBL2074337, “Predicting P-glycoprotein effects on oral absorption: correlation of transport in Caco-2 with drug pharmacokinetics in wild-type and mdr1a(-/-) mice in vivo” (Pharm Res, 2004).
